{"source": "BigSolDB 2.1", "data": [{"smiles": "O=CC(NS(=O)(=O)[O-])C(O)C(O)C(O)CO.[Na+]", "note": "(stereo unspecified)", "values": [{"measurement": "solubility (mole fraction)", "setting": "in ethanol, 288.15 K", "value": "8e-05"}, {"measurement": "solubility (mole fraction)", "setting": "in ethanol, 293.15 K", "value": 0.00012}, {"measurement": "solubility (mole fraction)", "setting": "in ethanol, 298.15 K", "value": 0.00021}, {"measurement": "solubility (mole fraction)", "setting": "in ethanol, 303.15 K", "value": 0.00027}, {"measurement": "solubility (mole fraction)", "setting": "in ethanol, 308.15 K", "value": 0.00035}, {"measurement": "solubility (mole fraction)", "setting": "in ethanol, 313.15 K", "value": 0.00046}, {"measurement": "solubility (mole fraction)", "setting": "in ethanol, 318.15 K", "value": 0.00055}, {"measurement": "solubility (mole fraction)", "setting": "in methanol, 288.15 K", "value": 0.0004}, {"measurement": "solubility (mole fraction)", "setting": "in methanol, 293.15 K", "value": 0.00046}, {"measurement": "solubility (mole fraction)", "setting": "in methanol, 298.15 K", "value": 0.00052}, {"measurement": "solubility (mole fraction)", "setting": "in methanol, 303.15 K", "value": 0.00058}, {"measurement": "solubility (mole fraction)", "setting": "in methanol, 308.15 K", "value": 0.00064}, {"measurement": "solubility (mole fraction)", "setting": "in methanol, 313.15 K", "value": 0.0007}, {"measurement": "solubility (mole fraction)", "setting": "in methanol, 318.15 K", "value": 0.00076}, {"measurement": "solubility (mole fraction)", "setting": "in water, 288.15 K", "value": 0.0315}, {"measurement": "solubility (mole fraction)", "setting": "in water, 293.15 K", "value": 0.0345}, {"measurement": "solubility (mole fraction)", "setting": "in water, 298.15 K", "value": 0.0388}, {"measurement": "solubility (mole fraction)", "setting": "in water, 303.15 K", "value": 0.0444}, {"measurement": "solubility (mole fraction)", "setting": "in water, 308.15 K", "value": 0.0514}, {"measurement": "solubility (mole fraction)", "setting": "in water, 313.15 K", "value": 0.0601}, {"measurement": "solubility (mole fraction)", "setting": "in water, 318.15 K", "value": 0.0727}]}]}
